# What was measured:
# Assay in all cases: microbe, parasite or virus in culture
# [1] = tested on: NL 4-3; format: cell-based, HIV-1; details: for fold change: fold change in EC50
# Procedure: (§1) The integrase encoding sequence was amplified from either wildtype HIV-1 (IIIB) or NL4.3 virus, or HXB2D site-directed mutant viruses containing mutations in integrase (such as T66I, S153Y, M154I, or combinations thereof) (Hazuda et al., Science 2000, 287, 646-650), or patient samples. Starting from RNA, extracted from virus supernatant or plasma using the QIAamp® viral RNA extraction kit (Qiagen), cDNA was synthesized by reverse transcription (Expand TM reverse transcriptase, 30 min at 42°C) with the primer 3'EGINT10 (SEQ ID NO 11), followed by a nested PCR. The outer PCR was performed with the primers 5'EGINT1 (SEQ ID NO 1) and 3'EGINT10 (SEQ ID NO 11) (ΔR-IN-vif construct) or 5'EGINT3 (SEQ ID NO 4) and 3'EGINT10 (SEQ ID NO 11) (ΔIN construct) (Expand™ High Fidelity PCR system), and 5 µl of the outer product was used for an inner PCR with primers 5'EGINT2 (SEQ ID NO 3) and 3'EGINT11 (SEQ ID NO 12) (ΔR-IN-vif construct) or 5'EGINT4 (SEQ ID NO 5) and 3'EGINT6 (SEQ ID NO 7) (ΔIN construct). In a second protocol the outer primers were identical as described above, the inner primers are 5'EGINT5 (SEQ ID NO 6) and 3'EGINT6 (SEQ ID NO 7). The amplicons can be used for genotyping and phenotyping. Cycling conditions for both PCRs are denaturation for 3 min at 95°C, followed by 30 cycles of 1 min 90°C, 30 sec 55°C, and 2 min 72°C. A final extension was performed at 72°C for 10 min. For recombination, PCR products are purified using the QiaQuick® 96 PCR BioRobot kit (Qiagen), according to the manufacturer's protocol. If the protocol starts from DNA containing the HIV material such as proviral DNA, the reverse transcriptase step is not needed. The nested approach is also not needed when starting from proviral DNA. The obtained amplicons were sequenced using the primers: In_seq1F (SEQ ID NO 17), In_seq2F (SEQ ID NO 18), In_seq3F (SEQ ID NO 19), IN_seq1R (SEQ ID NO 20), IN_seq2R (SEQ ID NO 21), and IN_seq3R (SEQ ID NO 22).
# (§2) A ΔR-IN-vif or ΔIN deletion construct was generated by site-directed mutagenesis on the template pSV40HXB2D with the primers MUT-IN1 (SEQ ID NO 13) and MUT-IN2 (ΔR-IN-vif construct) (SEQ ID NO 14) or MUT-IN3 (SEQ ID NO 15) and MUT-IN4 (SEQ ID NO 16) (ΔIN construct) (protocol Site-directed mutagenesis kit, Stratagene). After DpnI digestion for removal of the methylated template DNA, the construct was digested with SmaI and ligated to circulize the plasmid. The plasmid was transformed into competent cells such as Top10 cells, and colonies were screened for the presence of the deletion construct. The IN-deletion construct was checked by sequence analysis with primers 5'EGINT1 (SEQ ID NO 1) or […] and 3'EGINT10 (SEQ ID NO 11) or 3'EGINT11 (SEQ ID NO 12). For use in recombination experiments, large-scale plasmid DNA preparations were linearized by SmaI digestion and recombined with PCR amplified integrase genes from wild type, mutant, or patient viruses. The plasmid containing the integrase deletion (ΔIN) has been deposited pSV40HXB2D-ΔIN. The sequence of said plasmid is 14377 nucleotides long. The ΔR-IN-vif deletion construct is 13975 nucleotides long. The pSV40HXB2D-ΔIN was deposited at the Belgian Coordinated Collections of Micro-Organisms located at the Universiteit Gent - Laboratorium voor Moleculaire Biologie on August 5, 2002 and the accession number is LMBP 4574.
# (§3) Recombinant virus was produced by co-transfection by electroporation of the SmaI-linearized IN-deletion construct and the integrase amplicon into MT4 cells or MT4 cells equipped with an LTR driven reporter gene construct. Production of recombinant virus was evaluated by scoring the cytopathogenic effect (CPE) that is induced by HIV-infection of MT4 cells or by the LTR-driven reporter signal induced by HIV infection in MT4 reporter cells.
# [2] = tested on: WT III B; format: cell-based, HIV-1; details: for fold change: fold change in EC50
# Procedure: as §1, §2, §3
# [3] = tested on: patient_146514; format: cell-based, HIV; details: for fold change: AVE 2, patient_146514, primer set 3, fold change in EC50; for EC50: Human immunodeficiency virus 1, AVE 2, patient_146514, primer set 3
# Procedure: as §1, §2, §3
# [4] = Human immunodeficiency virus 1, AVE 1, NL 4-3, primer set 3
# [5] = Human immunodeficiency virus 1, NL43, AVE 4, NL4-3, primer set 4
# [6] = Human immunodeficiency virus 1, AVE 3, WT III B, primer set 3
# [7] = Human immunodeficiency virus 1, AVE 5, WT III B, primer set 4
SMILES,"fold change ([1]; AVE 1, NL 4-3, primer set 3)","fold change ([1]; AVE 4, NL4-3, primer set 4)","EC50 [1, 4]","EC50 [1, 5]","fold change ([2]; AVE 3, WT III B, primer set 3)","fold change ([2]; AVE 5, WT III B, primer set 4)","EC50 [2, 6]","EC50 [2, 7]",fold change [3],EC50 [3]
"Nc1ccn([C@@H]2CS[C@H](CO)O2)c(=O)n1 [Compound 3TC, Lamivudine]","0,6","2,0",820 nM,2730 nM,"0,3","1,2",384 nM,1690 nM,"2,5",3490 nM
"O=c1[nH]cnc2c1ncn2[C@H]1CC[C@@H](CO)O1 [DDI, Didanosine]","0,7","1,6",3360 nM,7890 nM,"0,5","1,6",2540 nM,7500 nM,"2,2",10400 nM
"CC(C)(C)NC(=O)[C@@H]1CN(Cc2cccnc2)CCN1C[C@@H](O)C[C@@H](Cc1ccccc1)C(=O)N[C@H]1c2ccccc2C[C@H]1O [IDV, Indinavir]","0,7","1,2",31.5 nM,50.7 nM,"0,4","0,9",18.4 nM,41.3 nM,"1,3",56.4 nM
"Cc1ccnc2c1NC(=O)c1cccnc1N2C1CC1 [NVP, Nevirapine]","1,1","1,7",97.6 nM,151 nM,"0,8","1,6",66.2 nM,134 nM,"1,7",151 nM
"CC(C)c1nc(CN(C)C(=O)N[C@H](C(=O)N[C@@H](Cc2ccccc2)C[C@H](O)[C@H](Cc2ccccc2)NC(=O)OCc2cncs2)C(C)C)cs1 [RTV, ritonavir]","0,6","1,2",87.1 nM,172 nM,"0,3","1,0",44.9 nM,154 nM,"1,3",192 nM
"CC(C)(C)NC(=O)[C@@H]1C[C@@H]2CCCC[C@@H]2CN1C[C@@H](O)[C@H](Cc1ccccc1)NC(=O)[C@H](CC(N)=O)NC(=O)c1ccc2ccccc2n1 [SQV, Saquinavir]","1,2","1,9",23.3 nM,38.5 nM,"0,7","1,8",13 nM,35.6 nM,"1,7",34.5 nM

# From patent EP1285971B1, “Methods for the phenotypic and genotypic assessment of the drug sensitivity of HIV integrase variants” (Tibotec Pharmaceuticals Ltd., priority 2001, dated 2003)
